Laboratory results reported in the NIST ThermoML archive (doi:10.1016/j.jct.2016.01.021).

Columns and labels:
[1] = 100 kPa, Liquid; for viscosity: Capillary tube (Ostwald / Ubbelohde) method; for mass density: Vibrating tube method
[2] = xn = mol fraction of the nth substance listed; details: 100 kPa, Liquid, x1 = 1; for viscosity: Capillary tube (Ostwald / Ubbelohde) method; for mass density: Vibrating tube method

CCCCCCCCCCCC(=O)OCC [ethyl dodecanoate]
[1]
Details	mass density [kg/m3]	viscosity [mPa·s]
298.15 K	858.19	3.015
303.15 K	854.3	2.704
308.15 K	850.4	2.439
313.15 K	846.5	2.213
318.15 K	842.6	2.016
323.15 K	838.7	1.846

CCCCCCCC(=O)OCC [ethyl octanoate]
[1]
Details	mass density [kg/m3]	viscosity [mPa·s]
298.15 K	862.64	1.428
303.15 K	858.34	1.313
308.15 K	854.04	1.211
313.15 K	849.72	1.121
318.15 K	845.39	1.042
323.15 K	841.06	0.971

CCCCCCCCCCCCCCCC [hexadecane] + CCCCCCCCCCCC(=O)OCC
[2]
Details	mass density [kg/m3]	viscosity [mPa·s]
298.15 K	769.92	3.085
303.15 K	766.51	2.756
308.15 K	763.06	2.478
313.15 K	759.6	2.239
318.15 K	756.14	2.034
323.15 K	752.68	1.857

CCCCCCCCCC(=O)OCC [ethyl decanoate]
[1]
Details	mass density [kg/m3]	viscosity [mPa·s]
298.15 K	860.05	2.115
303.15 K	855.99	1.919
308.15 K	851.92	1.75
313.15 K	847.85	1.603
318.15 K	843.77	1.474
323.15 K	839.69	1.362

CCCCCCCCCCCCCCCC [hexadecane]
[1]
Details	mass density [kg/m3]	viscosity [mPa·s]
298.15 K	769.92	3.085
303.15 K	766.51	2.756
308.15 K	763.06	2.478
313.15 K	759.6	2.239
318.15 K	756.14	2.034
323.15 K	752.68	1.857

CCCCCCCCCCCCCCCC [hexadecane] + CCCCCCCCCC(=O)OCC
[2]
Details	mass density [kg/m3]	viscosity [mPa·s]
298.15 K	769.92	3.085
303.15 K	766.51	2.756
308.15 K	763.06	2.478
313.15 K	759.6	2.239
318.15 K	756.14	2.034
323.15 K	752.68	1.857

CCCCCCCCCCCCCCCC [hexadecane] + CCCCCCCC(=O)OCC
[2]
Details	mass density [kg/m3]	viscosity [mPa·s]
298.15 K	769.92	3.085
303.15 K	766.51	2.756
308.15 K	763.06	2.478
313.15 K	759.6	2.239
318.15 K	756.14	2.034
323.15 K	752.68	1.857
